Article PMC8997995, “Amphiphilic Cell-Penetrating Peptides Containing Natural and Unnatural Amino Acids as Drug Delivery Agents” (Cells, 2022)
Where two headings read alike, the source gives them in different places. Non-standard residues stand in square brackets, D forms with d. Residues, ends and D or L forms follow the SMILES beside them. Dip = N[C@H](C(=O)O)C(c1ccccc1)c1ccccc1

Columns and labels:
CCRF-CEM cells = assay: In vitro cytotoxicity (MTS) in CCRF-CEM cells; type: cell-based, human; details: 25 µM, MTS, n = 3
Protocol: (§1) SK-OV-3, CCRF-CEM, HEK-293, MDA-MB-468, LLC-PK1, and MES-SA were used to determine the cytotoxicity of the synthesized linear and cyclic peptides. About 5000, 10,000, and 50,000 cells were seeded for SK-OV-3, HEK-293, and CCRF-CEM cells, respectively, in 0.1 mL of medium per well of 96-well plates. An appropriate medium was used for each cell line (SK-OV-3: McCoy’s 5A with L-glutamine containing fetal bovine serum (FBS) (10%) and penicillin or streptomycin (1%); CCRF-CEM: RPMI-1640 medium with L-glutamine and sodium bicarbonate containing FBS (10%) and penicillin or streptomycin (1%); MDA-MB-468 cells: DMEM/F12 (1:1) (1×) with L-glutamine and 15 mM HEPES containing FBS (10%) and penicillin or streptomycin (1%); LLC-PK1 cells: Dulbecco’s Modified Eagle’s Medium with 4500 mg/L glucose, L-glutamine and sodium bicarbonate, without sodium pyruvate liquid containing FBS (10%) and penicillin or streptomycin (1%); MES-SA cells: consisting of half SK-OV-3 and half CCRF-CEM media; and HEK-293 cells: Minimum Essential Medium Eagle with Earle’s salts and sodium bicarbonate, without L-glutamine containing FBS (10%) and penicillin or streptomycin (1%)). Then, 20 µL of peptides containing 5% DMSO in water were added to each well.
(§2) Adhesive cells were detached with 0.05% trypsin/EDTA after 15 min. The suspended cells were seeded in the medium 24 h prior to the experiment according to the previously reported procedure. The medium was changed before adding the peptides for adherent cells. Each concentration 5, 10, 25, 50, and 166 µM (containing 0.8% DMSO) had triplicate wells to minimize possible errors. […] The cell viability was measured by utilizing Multi-Mode Microplate Reader (SpectraMax M5 model, Molecular Devices, San Jose, CA, USA) after adding 20 µL of the MTS reagent to each well and incubating for 3 additional hours. […] The protocol manager was selected “endpoint” on the spectrophotometer’s software (SoftMax Pro 7). The 96-well plates were inserted inside spectrophotometer, and the data were acquired. The percentage of cell viability was calculated using the following equation:(1) =(Average OD values of samples treated with the compound /Average OD values of no treatment samples )∗100

MDA-MB-468 cells = assay: In vitro cytotoxicity (MTS) in MDA-MB-468 cells; type: cell-based, human; details: MDA-MB-468, 10 µM, 24 h and 72 h incubation
Protocol: (§3) SK-OV-3, CCRF-CEM, HEK-293, MDA-MB-468, LLC-PK1, and MES-SA were used to determine the cytotoxicity of the synthesized linear and cyclic peptides. About 5000, 10,000, and 50,000 cells were seeded for SK-OV-3, HEK-293, and CCRF-CEM cells, respectively, in 0.1 mL of medium per well of 96-well plates. […]
(§4) Adhesive cells were detached with 0.05% trypsin/EDTA after 15 min. […] The cell viability was measured by utilizing Multi-Mode Microplate Reader (SpectraMax M5 model, Molecular Devices, San Jose, CA, USA) after adding 20 µL of the MTS reagent to each well and incubating for 3 additional hours. […] The percentage of cell viability was calculated using the following equation:(1) =(Average OD values of samples treated with the compound /Average OD values of no treatment samples )∗100

[1] = Transmission electron microscopy, self-assembly; type: physicochemical; details: TEM, 30 μM, dried on grid overnight, not stained
Protocol: Transmission electron microscopy (TEM) was done on a LVEM 5D Microscope model (Delong instruments, Brno, Czech Republic) samples were prepared on an Ultrathin Carbon Film on Lacey Carbon Support Film with 400 mesh copper from Ted Pella. Dilute solutions of 30 μM concentration were used for the TEM analysis. Samples were dropped on grids, evaporated overnight, and not stained. They were incubated for approximately 2 h after thawing from a freezer (0 to −18 °C). Samples were air-dried, and images were obtained with a LVEM5 (Delong Instruments, US) 5 keV field emission gun. The camera was Zyla 5.5 Scientific CMOS with specifications of exposure 50–200 [ms], pixel readout 200 MHz—lowest noise, dynamic range 12-bit (low noise), and summing 1.

SK-OV-3 cells [2] = assay: Cellular uptake by flow cytometry in SK-OV-3 cells; type: cell-based, human; details: SK-OV-3, F’-FTC 2 µM, peptide 10 µM, 3 h
Protocol: CCRF-CEM and SK-OV-3 cells were used to measure the cellular uptake of a fluorescent-labeled phosphopeptide (F’-GpYEEI) (2 µM), stavudine (F’-d4T) (2 µM) lamivudine (F’-3TC) (1–2 µM), emtricitabine (F’-FTC) (2 µM), and siRNA (F’-siRNA) (36 nM) with the least toxic concentration for each linear and the cyclic peptide (10 µM). The uptake was measured in the presence and absence of the peptides. The SK-OV-3 (0.5 million) and CCRF-CEM (a million) cells were incubated in each well of 6-well plates with the synthesized peptide and the fluorescent-labeled compound in one well. Another well contained the fluorescent-labeled compound alone for 3 h in an incubator (37 °C in a humidified atmosphere of 5% CO2). […] For more details, please refer back to the cytotoxicity method described above.
The cells were transferred to FACS analysis tubes after being washed with phosphate-buffered saline (PBS). […] Finally, the cells were resuspended in flow cytometry buffer and analyzed by flow cytometry (FACSVerse model, Becton Dickinson, San Jose, CA, USA) using the FITC channel and the BD FACSuite software. […] Finally, the cells were analyzed by using FITC channel […] argon laser for the excitation and the emitted 519 nm fluorescence for detection. […] Results were evaluated to determine whether the peptides are facilitating the fluorescence compound to cross the membrane.

LLC-PK1 cells = assay: In vitro cytotoxicity (MTS) in LLC-PK1 cells; type: cell-based, pig; details: LLC-PK1, 10 µM, 24 h and 72 h incubation
Protocol: as §3, §4

SK-OV-3 cells [3] = type: cell-based, human; details: MTS, n = 3
Protocol: as §1, §2

- morphology of self-assembled structures [1]: aggregation
- size of self-assembled structures [1]: ≤ 30 nm
Structure (SMILES): N=C(N)NCCC[C@@H]1NC(=O)[C@H](C(c2ccccc2)c2ccccc2)NC(=O)[C@H](CCCNC(=N)N)NC(=O)[C@H](C(c2ccccc2)c2ccccc2)NC(=O)[C@H](CCCNC(=N)N)NC(=O)[C@H](C(c2ccccc2)c2ccccc2)NC(=O)[C@H](CCCNC(=N)N)NC(=O)[C@H](C(c2ccccc2)c2ccccc2)NC(=O)[C@H](CCCNC(=N)N)NC(=O)[C@H](C(c2ccccc2)c2ccccc2)NC1=O [[DipR]5] (cyclo([Dip]R[Dip]R[Dip]R[Dip]R[Dip]R))
- reduction of cell proliferation (CCRF-CEM cells; 24 h incubation): 64%
- reduction of cell proliferation (CCRF-CEM cells; 72 h incubation): 84%
- cytotoxicity (MDA-MB-468 cells): no significant cytotoxicity
- increase of cellular uptake of F’-FTC (SK-OV-3 cells [2]): 6 fold
- cytotoxicity (LLC-PK1 cells): no significant cytotoxicity
- reduction of cell proliferation (SK-OV-3 cells [3]; SK-OV-3, 10 µM, 72 h incubation): 75%
- reduction of cell proliferation (SK-OV-3 cells [3]; SK-OV-3, 25 µM, 24 h incubation): 81%
